Assay results from US20230150980A1, “COLLAGEN 1 TRANSLATION INHIBITORS AND METHODS OF USE THEREOF” (Anima Biotech Inc., priority 2020, published 2023).

Test system: collagen 1
Assay: WI-38 collagen 1 inhibition assay (anti-Collagen I immunofluorescence);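 also: minus sign means inactive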
Type: cell-based
Details: cellular EC50, WI-38 human lung fibroblasts, values are LogEC50 classes

SMILES | COL1 Efficacy (LogEC50)
Cc1ncnc(N2CCN(Cc3nc4cccc(C(F)(F)F)c4o3)CC2)c1C [compound 307, 2-((4-(5,6-dimethylpyrimidin-4-yl)piperazin-1-yl)methyl)-7-(trifluoromethyl)benzo[d]oxazole] | ++ (++: −5 to −6)
Cc1ncnc(N2CCN(Cc3nc4ccccc4o3)CC2)c1F [compound 309, 2-((4-(5-fluoro-6-methylpyrimidin-4-yl)piperazin-1-yl)methyl)benzo[d]oxazole] | ++ (++: −5 to −6)
Cc1ncnc(N2CCN(Cc3nc4ccccc4o3)CC2)c1Cl [compound 310, 2-((4-(5-chloro-6-methylpyrimidin-4-yl)piperazin-1-yl)methyl)benzo[d]oxazole] | ++ (++: −5 to −6)
Cc1ncnc(N2CCN(Cc3nc4ccccc4o3)CC2)c1C(F)(F)F [compound 311, 2-((4-(6-methyl-5-(trifluoromethyl)pyrimidin-4-yl)piperazin-1-yl)methyl)benzo[d]oxazole] | + (+: >−5)
Fc1cncnc1N1CCN(Cc2nc3ccccc3o2)CC1 [compound 313] | + (+: >−5)
Clc1cncnc1N1CCN(Cc2nc3ccccc3o2)CC1 [compound 314, 2-((4-(5-chloropyrimidin-4-yl)piperazin-1-yl)methyl)benzo[d]oxazole] | ++ (++: −5 to −6)
FC(F)(F)c1cncnc1N1CCN(Cc2nc3ccccc3o2)CC1 [compound 315, 2-((4-(5-(trifluoromethyl)pyrimidin-4-yl)piperazin-1-yl)methyl)benzo[d]oxazole] | + (+: >−5)
Cc1ncnc(N2CCN(C3(c4nc5ccccc5o4)CC3)CC2)c1C [compound 321, 2-(1-(4-(5,6-dimethylpyrimidin-4-yl)piperazin-1-yl)cyclopropyl)benzo[d]oxazole] | ++ (++: −5 to −6)
Cn1cc(N2CCN(Cc3nc4ccccc4o3)CC2)nn1 [compound 322] | + (+: >−5)
Cn1cc(N2CCN(Cc3nc4ccc(F)cc4o3)CC2)nn1 [compound 323] | −
Cn1ccc(N2CCN(Cc3nc4ccccc4o3)CC2)n1 [compound 324, 2-((4-(1-methyl-1H-pyrazol-3-yl)piperazin-1-yl)methyl)benzo[d]oxazole] | + (+: >−5)
Cn1nccc1N1CCN(Cc2nc3ccccc3o2)CC1 [compound 325] | −
Cn1cnc(N2CCN(Cc3nc4ccccc4o3)CC2)n1 [compound 326, 2-((4-(1-methyl-1H-1,2,4-triazol-3-yl)piperazin-1-yl)methyl)benzo[d]oxazole] | + (+: >−5)
Cc1ncnc(N2CCN(Cc3nc4ccc(F)cc4o3)CC2)c1Cl [compound 327, 2-((4-(5-chloro-6-methylpyrimidin-4-yl)piperazin-1-yl)methyl)-6-fluorobenzo[d]oxazole] | ++ (++: −5 to −6)
CCn1cc(N2CCN(Cc3nc4ccccc4o3)CC2)nn1 [compound 328] | −
Cc1ncnc(N2CCN(Cc3nc4ccc(F)cc4o3)CC2)c1C#N [compound 329, 4-(4-((6-fluorobenzo[d]oxazol-2-yl)methyl)piperazin-1-yl)-6-methylpyrimidine-5-carbonitrile] | ++ (++: −5 to −6)
Cc1ncnc(N2CCN(Cc3nc4ccncc4o3)CC2)c1C [compound 330, 2-((4-(5,6-dimethylpyrimidin-4-yl)piperazin-1-yl)methyl)oxazolo[5,4-c]pyridine] | ++ (++: −5 to −6)
Cn1cc(N2CCN(Cc3cc4ccc(F)cc4[nH]3)CC2)nn1 [compound 331] | −
c1ccc2oc(CN3CCN(c4c[nH]nn4)CC3)nc2c1 [compound 332] | −
Cc1ncnc(N2CCN(Cc3nc4ccc(F)cc4o3)CC2)c1C(N)=O [compound 333] | −
Cc1ncnc(N2CC3CC2CN3Cc2nc3ccc(F)cc3o2)c1C (centres unmarked) [compound 334, 2-((5-(5,6-dimethylpyrimidin-4-yl)-2,5-diazabicyclo[2.2.1]heptan-2-yl)methyl)-6-fluorobenzo[d]oxazole] | +++ (+++: <−6)
Cc1ncnc(N2CCN(Cc3nc4ccccc4o3)CC2)c1C=O [compound 336, 4-(4-(benzo[d]oxazol-2-ylmethyl)piperazin-1-yl)-6-methylpyrimidine-5-carbaldehyde] | ++ (++: −5 to −6)
C#CCCC1(CCOc2cncnc2N2CCN(Cc3cc4ccccc4[nH]3)CC2)N=N1 [compound 337, 2-((4-(5-(2-(3-(but-3-yn-1-yl)-3H-diazirin-3-yl)ethoxy)pyrimidin-4-yl)piperazin-1-yl)methyl)-1H-indole] | ++ (++: −5 to −6)
C#CCCC1(CCOc2ccc3cc(CN4CCN(c5ncncc5CC)CC4)[nH]c3c2)N=N1 [compound 338, 6-(2-(3-(but-3-yn-1-yl)-3H-diazirin-3-yl)ethoxy)-2-((4-(5-ethylpyrimidin-4-yl)piperazin-1-yl)methyl)-1H-indole] | +++ (+++: <−6)
CC(C)n1cc(N2CCN(Cc3nc4ccccc4o3)CC2)nn1 [compound 339] | −
Cn1cnc(N2CCN(Cc3nc4ccccc4o3)CC2)c1 [compound 340] | −
